Measured values from patent US12084467B2, “Therapeutic compounds for HIV virus infection” (Gilead Sciences, Inc., priority 2021, dated 2024).
≈ marks a conversion by molar mass, not a printed value.

What was measured:
[1] = Solubility in simulated intestinal fluids (FaSSIF / FeSSIF); conditions: 25 °C, thermodynamic from solid
[2] = Kinetic solubility analysis (CLND: total chemiluminescent nitrogen determination); conditions: 1.0% DMSO, 24-hour incubation at ambient temperature, maximum theoretical concentration 100 μM; for pH 2 solubility: 0.1N HCl; for pH 7 solubility: 1×PBS buffer (pH 7.4)
[3] = fasted state simulated intestinal fluid (FaSSIF), fassif
[4] = fed state simulated intestinal fluid (FeSSIF), fessif

| SMILES | solubility [1, 3] [µg/mL] | solubility [1, 4] [µg/mL] | pH 2 solubility [2] | pH 7 solubility [2] |
| --- | --- | --- | --- | --- |
| CC(C)(C#Cc1ccc(-c2ccc(Cl)c3c(N(C(=O)N4CCOC[C@@H]4CN(CC(=O)O)C(=O)OCOP(=O)(O)O)S(C)(=O)=O)nn(CC(F)(F)F)c23)c([C@H](Cc2cc(F)cc(F)c2)NC(=O)Cn2nc(C(F)(F)F)c3c2C(F)(F)[C@@H]2C[C@H]32)n1)S(C)(=O)=O [Compound 37, N—(((S)-4-((4-chloro-7-(2-((S)-1-(2-((3bS,4aR)-5,5-difluoro-3-(trifluoromethyl)-3b,4,4a,5-tetrahydro-1H-cyclopropa[3,4]cyclopenta[1,2-c]pyrazol-1-yl)acetamido)-2-(3,5-difluorophenyl)ethyl)-6-(3-methyl-3-(methylsulfonyl)but-1-yn-1-yl)pyridin-3-yl)-1-(2,2,2-trifluoroethyl)-1H-indazol-3-yl)(methylsulfonyl)carbamoyl)morpholin-3-yl)methyl)-N-(((phosphonooxy)methoxy)carbonyl)glycine] | 6200 (≈ 4690 µM) | > 8370 | 2 μM | 100 μM |
| CC(C)(C#Cc1ccc(-c2ccc(Cl)c3c(N(C(=O)c4ccccc4CN(CCC(=O)O)C(=O)OCOP(=O)(O)O)S(C)(=O)=O)nn(CC(F)(F)F)c23)c([C@H](Cc2cc(F)cc(F)c2)NC(=O)Cn2nc(C(F)(F)F)c3c2C(F)(F)[C@@H]2C[C@H]32)n1)S(C)(=O)=O [Compound 21, 3-((2-((4-chloro-7-(2-((S)-1-(2-((3bS,4aR)-5,5-difluoro-3-(trifluoromethyl)-3b,4,4a,5-tetrahydro-1H-cyclopropa[3,4]cyclopenta[1,2-c]pyrazol-1-yl)acetamido)-2-(3,5-difluorophenyl)ethyl)-6-(3-methyl-3-(methylsulfonyl)but-1-yn-1-yl)pyridin-3-yl)-1-(2,2,2-trifluoroethyl)-1H-indazol-3-yl)(methylsulfonyl)carbamoyl)benzyl)(((phosphonooxy)methoxy)carbonyl)amino)propanoi c acid] | 1110 (≈ 835 µM) | 1420 (≈ 1070 µM) | 1 μM | 100 μM |
| CC(C)(C#Cc1ccc(-c2ccc(Cl)c3c(N(C(=O)[C@H]4C[C@H](N)C4)S(C)(=O)=O)nn(CC(F)(F)F)c23)c([C@H](Cc2cc(F)cc(F)c2)NC(=O)Cn2nc(C(F)(F)F)c3c2C(F)(F)[C@@H]2C[C@H]32)n1)S(C)(=O)=O [Compound 7, (trans)-3-amino-N-(4-chloro-7-(2-((S)-1-(2-((3bS,4aR)-5,5-difluoro-3-(trifluoromethyl)-3b,4,4a,5-tetrahydro-1H-cyclopropa[3,4]cyclopenta[1,2-c]pyrazol-1-yl)acetamido)-2-(3,5-difluorophenyl)ethyl)-6-(3-methyl-3-(methylsulfonyl)but-1-yn-1-yl)pyridin-3-yl)-1-(2,2,2-trifluoroethyl)-1H-indazol-3-yl)-N-(methylsulfonyl)cyclobutane-1-carboxamide] | – | – | 70 μM | 1 μM |
| CN1CCN(C(=O)N(c2nn(CC(F)(F)F)c3c(-c4ccc(C#CC(C)(C)S(C)(=O)=O)nc4[C@H](Cc4cc(F)cc(F)c4)NC(=O)Cn4nc(C(F)(F)F)c5c4C(F)(F)[C@@H]4C[C@H]54)ccc(Cl)c23)S(C)(=O)=O)CC1 [Compound 1, N-(4-chloro-7-(2-((S)-1-(2-((3bS,4aR)-5,5-difluoro-3-(trifluoromethyl)-3b,4,4a,5-tetrahydro-1H-cyclopropa[3,4]cyclopenta[1,2-c]pyrazol-1-yl)acetamido)-2-(3,5-difluorophenyl)ethyl)-6-(3-methyl-3-(methylsulfonyl)but-1-yn-1-yl)pyridin-3-yl)-1-(2,2,2-trifluoroethyl)-1H-indazol-3-yl)-4-methyl-N-(methylsulfonyl)piperazine-1-carboxamide] | – | – | 39 μM | 1 μM |
| CC(C)(C#Cc1ccc(-c2ccc(Cl)c3c(N(C(=O)[C@H]4C[C@H](NC(=O)C(=O)O)C4)S(C)(=O)=O)nn(CC(F)(F)F)c23)c([C@H](Cc2cc(F)cc(F)c2)NC(=O)Cn2nc(C(F)(F)F)c3c2C(F)(F)[C@@H]2C[C@H]32)n1)S(C)(=O)=O [Compound 8] | – | – | <1/1 μM | <1/1 μM |
| CC(C)(C#Cc1ccc(-c2ccc(Cl)c3c(N(C(=O)[C@H]4C[C@H]4C(=O)O)S(C)(=O)=O)nn(CC(F)(F)F)c23)c([C@H](Cc2cc(F)cc(F)c2)NC(=O)Cn2nc(C(F)(F)F)c3c2C(F)(F)[C@@H]2C[C@H]32)n1)S(C)(=O)=O [Compound 17, (1R,2S)-2-((4-chloro-7-(2-((S)-1-(2-((3bS,4aR)-5,5-difluoro-3-(trifluoromethyl)-3b,4,4a,5-tetrahydro-1H-cyclopropa[3,4]cyclopenta[1,2-c]pyrazol-1-yl)acetamido)-2-(3,5-difluorophenyl)ethyl)-6-(3-methyl-3-(methylsulfonyl)but-1-yn-1-yl)pyridin-3-yl)-1-(2,2,2-trifluoroethyl)-1H-indazol-3-yl)(methylsulfonyl)carbamoyl)cyclopropane-1-carboxylic acid] | – | – | 3/3 μM | 3/3 μM |
| CC(C)(C#Cc1ccc(-c2ccc(Cl)c3c(N(C(=O)N4CCC(C(=O)O)CC4)S(C)(=O)=O)nn(CC(F)(F)F)c23)c([C@H](Cc2cc(F)cc(F)c2)NC(=O)Cn2nc(C(F)(F)F)c3c2C(F)(F)[C@@H]2C[C@H]32)n1)S(C)(=O)=O [Compound 25, 1-((4-chloro-7-(2-((S)-1-(2-((3bS,4aR)-5,5-difluoro-3-(trifluoromethyl)-3b,4,4a,5-tetrahydro-1H-cyclopropa[3,4]cyclopenta[1,2-c]pyrazol-1-yl)acetamido)-2-(3,5-difluorophenyl)ethyl)-6-(3-methyl-3-(methylsulfonyl)but-1-yn-1-yl)pyridin-3-yl)-1-(2,2,2-trifluoroethyl)-1H-indazol-3-yl)(methylsulfonyl)carbamoyl)piperidine-4-carboxylic acid] | – | – | 1 μM | 19 μM |
| CC(C)(C#Cc1ccc(-c2ccc(Cl)c3c(N(C(=O)C4CN(C(=N)N)C4)S(C)(=O)=O)nn(CC(F)(F)F)c23)c([C@H](Cc2cc(F)cc(F)c2)NC(=O)Cn2nc(C(F)(F)F)c3c2C(F)(F)[C@@H]2C[C@H]32)n1)S(C)(=O)=O [Compound 6, 1-carbamimidoyl-N-(4-chloro-7-(2-((S)-1-(2-((3bS,4aR)-5,5-difluoro-3-(trifluoromethyl)-3b,4,4a,5-tetrahydro-1H-cyclopropa[3,4]cyclopenta[1,2-c]pyrazol-1-yl)acetamido)-2-(3,5-difluorophenyl)ethyl)-6-(3-methyl-3-(methylsulfonyl)but-1-yn-1-yl)pyridin-3-yl)-1-(2,2,2-trifluoroethyl)-1H-indazol-3-yl)-N-(methylsulfonyl)azetidine-3-carboxamide] | – | – | 15 μM | 9 μM |
| CC(C)(C#Cc1ccc(-c2ccc(Cl)c3c(N(C(=O)N4CCC(N5CCCCC5)CC4)S(C)(=O)=O)nn(CC(F)(F)F)c23)c([C@H](Cc2cc(F)cc(F)c2)NC(=O)Cn2nc(C(F)(F)F)c3c2C(F)(F)[C@@H]2C[C@H]32)n1)S(C)(=O)=O [Compound 2, N-(4-chloro-7-(2-((S)-1-(2-((3bS,4aR)-5,5-difluoro-3-(trifluoromethyl)-3b,4,4a,5-tetrahydro-1H-cyclopropa[3,4]cyclopenta[1,2-c]pyrazol-1-yl)acetamido)-2-(3,5-difluorophenyl)ethyl)-6-(3-methyl-3-(methylsulfonyl)but-1-yn-1-yl)pyridin-3-yl)-1-(2,2,2-trifluoroethyl)-1H-indazol-3-yl)-N-(methylsulfonyl)-[1,4′-bipiperidine]-1′-carboxamide] | – | – | 17 μM | 1 μM |
| CC(C)(C#Cc1ccc(-c2ccc(Cl)c3c(N(C(=O)N4CCC[C@H]4CN)S(C)(=O)=O)nn(CC(F)(F)F)c23)c([C@H](Cc2cc(F)cc(F)c2)NC(=O)Cn2nc(C(F)(F)F)c3c2C(F)(F)[C@@H]2C[C@H]32)n1)S(C)(=O)=O [Compound 31, (S)-2-(aminomethyl)-N-(4-chloro-7-(2-((S)-1-(2-((3bS,4aR)-5,5-difluoro-3-(trifluoromethyl)-3b,4,4a,5-tetrahydro-1H-cyclopropa[3,4]cyclopenta[1,2-c]pyrazol-1-yl)acetamido)-2-(3,5-difluorophenyl)ethyl)-6-(3-methyl-3-(methylsulfonyl)but-1-yn-1-yl)pyridin-3-yl)-1-(2,2,2-trifluoroethyl)-1H-indazol-3-yl)-N-(methylsulfonyl)pyrrolidine-1-carboxamide] | – | – | 61 μM | 14 μM |
| CC(C)(C#Cc1ccc(-c2ccc(Cl)c3c(N(C(=O)C4CNC4)S(C)(=O)=O)nn(CC(F)(F)F)c23)c([C@H](Cc2cc(F)cc(F)c2)NC(=O)Cn2nc(C(F)(F)F)c3c2C(F)(F)[C@@H]2C[C@H]32)n1)S(C)(=O)=O [Compound 5, N-(4-chloro-7-(2-((S)-1-(2-((3bS,4aR)-5,5-difluoro-3-(trifluoromethyl)-3b,4,4a,5-tetrahydro-1H-cyclopropa[3,4]cyclopenta[1,2-c]pyrazol-1-yl)acetamido)-2-(3,5-difluorophenyl)ethyl)-6-(3-methyl-3-(methylsulfonyl)but-1-yn-1-yl)pyridin-3-yl)-1-(2,2,2-trifluoroethyl)-1H-indazol-3-yl)-N-(methylsulfonyl)azetidine-3-carboxamide] | – | – | 34 μM | 1 μM |
